One substance from PMC9573294, “AVA-NP-695 Selectively Inhibits ENPP1 to Activate STING Pathway and Abrogate Tumor Metastasis in 4T1 Breast Cancer Syngeneic Mouse Model” (Molecules, 2022) can be followed below.

The term IC50 denotes the concentration needed to halve the response being measured.

For this experiment, the target named is T1, Ectonucleotide pyrophosphatase/phosphodiesterase 1 (ENPP1) (Homo sapiens, UniProt P22413).
T1 construct: Human recombinant ENPP1 (rENPP1)
T1 sequence (P22413 98-925 limits assumed): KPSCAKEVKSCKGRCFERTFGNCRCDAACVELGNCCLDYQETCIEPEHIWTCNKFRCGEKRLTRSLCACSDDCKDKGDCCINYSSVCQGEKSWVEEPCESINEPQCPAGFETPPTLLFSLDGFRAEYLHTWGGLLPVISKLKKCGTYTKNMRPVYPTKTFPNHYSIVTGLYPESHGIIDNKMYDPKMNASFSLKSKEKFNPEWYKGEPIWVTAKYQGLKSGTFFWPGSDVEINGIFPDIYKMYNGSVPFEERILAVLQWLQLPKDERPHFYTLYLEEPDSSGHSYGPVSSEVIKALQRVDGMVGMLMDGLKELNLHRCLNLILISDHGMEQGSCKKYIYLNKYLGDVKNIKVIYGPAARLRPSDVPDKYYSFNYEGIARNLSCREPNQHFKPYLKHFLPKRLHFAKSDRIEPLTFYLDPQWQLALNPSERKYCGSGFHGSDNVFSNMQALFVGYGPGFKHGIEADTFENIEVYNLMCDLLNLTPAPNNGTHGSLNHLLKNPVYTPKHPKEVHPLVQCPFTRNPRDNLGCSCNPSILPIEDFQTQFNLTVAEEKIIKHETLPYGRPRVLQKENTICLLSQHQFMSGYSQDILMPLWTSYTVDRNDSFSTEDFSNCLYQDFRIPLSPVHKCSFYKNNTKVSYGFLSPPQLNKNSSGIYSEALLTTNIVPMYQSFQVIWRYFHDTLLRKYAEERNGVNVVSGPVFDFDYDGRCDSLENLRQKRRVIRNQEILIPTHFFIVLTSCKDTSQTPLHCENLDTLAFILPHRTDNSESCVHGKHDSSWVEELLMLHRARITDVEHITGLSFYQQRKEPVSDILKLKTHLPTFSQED
The experiment in a line: enzymatic assay with p-Nph-5'-TMP substrate (Ki […] with […]'[…]'-cGAMP and […] with p-NPh-5'-TMP also printed). The format is biochemical.

On to AVA-NP-695, for which the IC50 is 14 ± 2 nM.
